Reference: patent US20050118249A1, “Lipid carrier compositions and methods for improved drug retention” (priority 2001, published 2005)
Each block holds one compound with its values, some of them ahead of it.

Columns and labels:
[1] = Retention of idarubicin in liposomes with varying internal citrate after intravenous injection; assay type: in vivo, Balb/c mice; details: DSPC/DSPE-PEG2000 (95:5) liposomes; 300 mM citrate (>500 mOsm/kg) in relation to 100 and 150 mM (<500 mOsm/kg); i.v., 0.5-24 h
Experimental: DSPC/DSPE-PEG2000 (95:5 mole ratio) liposomes prepared with 100, 150 and 300 mM citrate were also loaded with idarubicin at a drug to lipid mole ratio of 0.25:1. Loading was facilitated by incubating the drug and liposomes at 37° C. for 60 minutes. Liposomes were administered to Balb/c mice as indicated and blood samples were removed by cardiac puncture at 0.5, 1, 2, 4 and 24-hours post administration (3 mice per time point). Idarubicin concentration was quantitated using fluorescence intensity at 485 nm as the excitation wavelength and 535 nm as an emission wavelength and using an absorbance wavelength of 482 nm.

[2] = Retention of FUDR in DSPC/DSPG/Chol liposomes in blood after intravenous injection; assay type: in vivo, Balb/c mice; details: DSPC/DSPG/Chol (70:20:10) liposomes; intraliposomal solution of less than 500 mOsm/kg; i.v., 1, 4, 24 h
Experimental: DSPC/DSPG/Chol (70:20:10 mole ratio) were prepared following the methods of Example 1 except that lipid films were hydrated in either saline or Cu(II)gluconate, pH 7.4 containing 25 mg/mL FUDR at 70° C. Cu(II)gluconate was added at either 100 or 200 mM (321 and 676 mOsm/kg, respectively) and the pH was adjusted to 7.4 by addition of triethanolamine (TEA). Trace amounts of 14C-CHE and ^3H-FUDR were used as lipid and drug markers, respectively. The resulting MLVs were extruded at 75° C. through two stacked 100 nm pore size filters for a total of ten passes. Liposomes were buffer exchanged into HBS, pH 7.4 using a hand-held tangential flow column. A total lipid dose of 3.3 μmoles (165 μmoles/kg) was administered to female Balb/c mice in a final volume of 200 μL immediately after preparation (within 1-2 hrs). Blood samples were removed by cardiac puncture 1, 4 and 24-hours post administration (3 mice per time point). Lipid and FUDR levels were determined using liquid scintillation counting and values were reported as the mean±SD.

[3] = Retention of daunorubicin in liposomes in blood after intravenous injection (time course); assay type: in vivo, Balb/c mice; details: DSPC/DSPE-PEG2000 (95:5) liposomes; internal citrate 600 mOsm/kg (300 mM) in relation to 300 mOsm/kg (150 mM); i.v., 1, 4, 24 h
Experimental: DSPC/DSPE-PEG2000 liposomes (95:5 mole ratio) containing 150 or 300 mM citrate (300 or 600 mOsm/kg), pH 4 and DSPC/Cholesterol (55:45 mole ratio) and DSPC/Cholesterol/DSPE-PEG2000 (50:45:5 mole ratio) liposomes containing 150 mM citrate, pH 4 were prepared as described in Example 1. Liposomes were subsequently combined with daunorubicin at a 0.2:1 drug to lipid mole ratio. To facilitate drug loading, the mixtures were incubated at 40° C. for 60 minutes.
The resulting daunorubicin-containing liposomes were administered to Balb/c female mice at a lipid dose of 165 μmoles/kg as detailed above. Blood samples were removed at 1, 4 and 24 hours post administration by cardiac puncture (3 mice per time point). Lipid levels were determined by liquid scintillation counting. Daunorubicin was extracted from plasma samples and quantified as follows: a defined volume of plasma was adjusted to 200 μL with distilled water followed by addition of 600 μL of distilled water, 100 μL of 10% SDS and 100 μL of 10 mM H2SO4. This solution was mixed and 2 mLs of 1:1 isopropanol/chloroform was added followed by vortexing. […] The bottom organic layer was removed and assayed for fluorescence intensity at 500 nm as the excitation wavelength (2.5 nm bandpass) and 550 nm as an emission wavelength (10 nm bandpass) and using an absorbance wavelength of 480 nm.

[4] = Retention of daunorubicin in liposomes with varying internal citrate, 4 hours after injection; assay type: in vivo, Balb/c mice; details: DSPC/DSPE-PEG2000 (95:5) liposomes; 100, 150 and 200 mM internal citrate (about 200, 300, 400 mOsm/kg); 4 hours after i.v. injection
Experimental: DSPC/DSPE-PEG2000 (95:5 mole ratio) liposomes containing the non-exchangeable marker 3H-CHE were prepared as described in Example 1, except that lipid films were hydrated with 100, 150, 200, 250 or 300 mM citrate, pH 4.0 (corresponding to osmolarity levels of about 200, 300, 400, 500 or 600 mOsm/kg, respectively).
Daunorubicin was loaded at a 0.2:1 drug-to-lipid mole ratio with the methods detailed above into each of the five liposomal formulations. The resulting liposomes were administered to female Balb/c mice at a lipid dose of 165 μmoles/kg in a final volume of 200 μL immediately after preparation (within 1-2 hrs). Blood samples were removed 4 hours after administration by cardiac puncture (3 mice per time point). Lipid and daunorubicin levels were determined as described previously and percent initial drug-to-lipid ratio was reported as the mean±SD.

[5] = Drug-to-lipid ratio of irinotecan before and after freezing of dual-loaded DSPC/DSPG liposomes; assay type: physicochemical; details: 0-20 mole % cholesterol, with FUDR, 250 mM CuSO4 inside (<500 mOsm/kg), frozen at -20° C. and -70° C. for 24 hours
Experimental: FUDR and irinotecan were loaded into cholesterol-free liposomes containing a low osmolarity internal solution and drug retention and liposome size were measured prior to and after freezing. DSPC/DSPG liposomes containing 0-20 mole % cholesterol, 20 mole % DSPG and passively entrapped FUDR were prepared as described previously and hydrated in 250 mM CuSO4 (<500 mOsm/kg). The MLVs were extruded at 70° C. as detailed above and buffered exchanged into saline and then into 300 mM sucrose, 20 mM Hepes, 30 mM EDTA (SHE), pH 7.4 using a hand-held tangential flow column. The sample was then further exchanged into 300 mM sucrose, 20 mM Hepes, pH 7.4 to remove residual EDTA. The liposomes were subsequently loaded with irinotecan at a drug-to-lipid mole ratio of 0.1:1 by mixing the two solutions at 50° C. for five minutes. The dual-loaded liposomes were then buffered exchanged into HBS using tangential flow to remove any unencapsulated drug.
The influence of freezing on liposome stability was determined by freezing the liposomes at either −20° C. or −70° C. for 24 hours. […] Lipid and FUDR levels were quantified using liquid scintillation and absorbance at 370 nm was used to determine irinotecan concentration. Particle sizing of the liposomes was also determined prior to and after freezing using quasi-elastic light scattering.

[6] = Retention of vincristine in liposomes in blood after intravenous injection; assay type: in vivo, Balb/c mice; details: i.v., 1, 4, 24 h
Experimental: Solutions of lipids in chloroform were combined to give a 95:5 molar ratio of DSPC/DSPE-PEG2000 or a 55:45 molar ratio of DSPC/Cholesterol, with trace amounts of ^14C-cholesteryl hexadecyl ether (^14C-CHE). The resulting mixtures were dried under a stream of nitrogen gas and placed in a vacuum pump overnight. The samples were hydrated at 70° C. with either 300 mM citrate, pH 4.0 (about 600 milliosmoles/kg (mOsm/kg)) or 150 mM citrate buffer, pH 4.0 (about 300 mOsm/kg) and passed through an extrusion apparatus (Northern Lipids Inc., Vancouver, BC) ten times with two 100 nm pore size polycarbonate filters at 70° C. Average liposome size was determined by quasi-elastic light scattering using a NICOMP 370 submicron particle sizer operating at a wavelength of 632.8 nm. The resulting liposomes were applied to a Sephadex G50 column equilibrated with HBS (20 mM HEPES, 150 mM NaCl, about 320 mOsm/kg), pH 7.45 to exchange the external liposomal buffer. […]
Vincristine-containing liposomes were administered intravenously to Balb/c mice at a lipid dose of 165 μmoles/kg in a final volume of 200 μL immediately after preparation (within 1-2 hrs). […] Lipid and vincristine levels were quantified by liquid scintillation counting and the values were reported as the mean ± standard deviation (SD).

Structure (SMILES): CC(=O)[C@]1(O)Cc2c(O)c3c(c(O)c2[C@@H](O[C@H]2C[C@H](N)[C@H](O)[C@H](C)O2)C1)C(=O)c1ccccc1C3=O [idarubicin]
idarubicin retention (idarubicin-to-lipid mole ratio in the blood) [1]: significantly decreased

Structure (SMILES): O=c1[nH]c(=O)n([C@H]2C[C@H](O)[C@@H](CO)O2)cc1F [FUDR, Floxuridine]
FUDR retention (FUDR levels remaining in the blood) [2]: optimally retained

Structure (SMILES): CCc1c2c(nc3ccc(OC(=O)N4CCC(N5CCCCC5)CC4)cc13)-c1cc3c(c(=O)n1C2)COC(=O)[C@]3(O)CC [irinotecan]
retention of irinotecan after freezing (drug-to-lipid ratio) [5]: effectively retained

Second part, led by results:

daunorubicin retention (percent initial daunorubicin-to-lipid ratio remaining in the blood) [3]: compromised
retention of daunorubicin (percent initial daunorubicin-to-lipid ratio remaining in the blood) [4]: optimal retention
Structure (SMILES): COc1cccc2c1C(=O)c1c(O)c3c(c(O)c1C2=O)C[C@@](O)(C(C)=O)C[C@@H]3O[C@H]1C[C@H](N)[C@H](O)[C@H](C)O1 [daunorubicin]

retention of vincristine (percent initial vincristine-to-lipid weight ratio in the blood) ([6]; DSPC/DSPE-PEG2000 (95:5 mole ratio) liposomes, internal citrate 300 mOsm/kg (150 mM) compared to 600 mOsm/kg (300 mM)): significantly enhanced
Structure (SMILES): CC[C@]1(O)C[C@H]2CN(CCc3c([nH]c4ccccc34)[C@@](C(=O)OC)(c3cc4c(cc3OC)N(C=O)[C@H]3[C@@](O)(C(=O)OC)[C@H](OC(C)=O)[C@]5(CC)C=CCN6CC[C@]43[C@@H]65)C2)C1 [vincristine]
retention of vincristine (percent initial vincristine-to-lipid weight ratio in the blood) ([6]; DSPC/cholesterol (55:45 mole ratio) liposomes, 150 mM vs 300 mM internal citrate): independent of the osmolarity of the intraliposomal solution
